The values below come from paper PMC12291464, “Modifying Antifungal Peptides as Safe Food Preservatives” (Journal of Agricultural and Food Chemistry, 2025).

In brackets after ≈: the same amount, converted by molar mass. Entries after “also recorded” stand apart in the source; their conditions may differ. Where two headings read alike, the source gives them in different places. Residues, ends and D or L forms follow the SMILES beside them.

For data set [1], the system named is A. fumigatus. The following applies: 24 h. As for the experimental part: (§1) A1163 was grown on potato dextrose agar (PDA) medium at 37 °C for 5 days, and then the conidia were scraped and suspended in PBS with 0.025% (v/v) Tween 20, counted using a hemocytometer, and kept at 4 °C. isolated from peanuts and Pe21 (both kindly provided by Dr. Edward Sionov, ARO, Israel) were grown on PDA medium at 25 °C for 5 days, and then the conidia were scraped and suspended in PBS with 0.025% Tween 20 and kept at 4 °C. RP and methicillin-resistant (MRSA) were grown on LB agar plates, and individual colonies were picked and grown in Mueller–Hinton (MH) broth overnight at 37 °C. was grown on PDA medium at 30 °C, and individual colonies were picked and grown in yeast extract peptone dextrose (YPD) media overnight at 30 °C. All fungal and bacteria strains were maintained at −80 °C in 50% (v/v) glycerol stock.
(§2) For filamentous fungi strains, serial dilutions of 100 μL ranged from 100 to 0.78 μM for each peptide in a 96 well plate using RPMI1640 with 165 μM MOPS. A total of 80 μL of inoculum was suspended with a conidia load of 5 × 10^3 CFU/mL (final density of 2 × 10^3 CFU/mL), and 20 μL of resazurin was diluted in RPMI1640 solution of 0.02% [final concentration of 0.0002% (w/v)]. In the control, 100 μL of treatment was replaced by the same volume with medium, while the negative control was 180 μL of the medium and 20 μL of resazurin solution. Plates were incubated at 37 °C for and 25 °C for and for 24 h. The results were quantified by measuring absorbance at 570 nm with a microplate reader (Tecan). The mean absorbance values were used in subsequent calculations. The growth of resazurin reduction and growth inhibition was calculated using the following normalization: % growth=100−% reduction=abs of test agent−abs of untreated control/abs of reduced resazurin−abs of untreated control The MIC was defined as the lowest concentration of the peptide that inhibited fungal growth by 90%, allowing for only 10% of the normal growth. For bacterial and yeast strains studies, serial dilutions of 100 μL ranged from 100 to 0.78 μM for each peptide in a 96 well plate using MH media for bacteria and YPD for yeast. A total of 100 μL of the microbe in suitable media (5 × 10^5 CFU/mL) was inoculated in each well. In the untreated well (e.g., control), 100 μL of treatment was replaced by the same volume with medium, while in the negative control, media were only without microbes and peptides. After 24 h of incubation at 37 °C for bacteria and 30 °C for yeast, plates were read at 595 nm and MIC was defined as the lowest concentration of peptide that reduced the growth of the microbe to 10% growth.

In data set [2] the test system is MRSA. As for the experimental part:
as §1, §2

The subject of data set [3] is E. coli. The method, then: as §1, §2
Data set [4] has as its system P. expansum. The following applies: 24 h. The method, then:
as §1, §2

Data set [5] relates to A. Niger. Conditions: 24 h. As for the experimental part:
as §1, §2

In data set [6] the target is chymotrypsin (Bos taurus, UniProt P00766). Briefly: Digestion examination of the peptides by chymotrypsin. The method, then:
Peptides were dissolved in 1 mL of 100 μM NH4HCO3 to a final concentration of 4 mM, followed by the addition of 1 μL chymotrypsin (1 mg/mL), and were incubated at 37 °C and 150 rpm. At each time point, 75 μL of the solution was transferred to 90 °C for inactivation of the enzyme. After the peptides were frozen in liquid nitrogen and lyophilized, they were dissolved in DMSO and were analyzed in HPLC using Analytic Phenomenex Luna C18 (5 μm, 4.6 × 250 mm) with standard RP-HPLC conditions. The area under curve (AUC) was calculated at each time point and normalized to time = 0.
4 Peptide’s secondary structure and digestibility. (A) CD spectra of the peptides (50 μM) in DDW was measured using a J-1100 spectropolarimeter (Jasco), with the following parameters: wavelength range of 190–260 nm, bandwidth of 1 nm, data pitch of 0.1 nm, and three accumulations. A baseline spectrum was recorded using a 0.1 cm quartz cuvette filled with DDW and subtracted from the peptide spectrum to obtain the corrected CD spectrum. […] The area under the curve (AUC) was calculated at each time point and normalized to t = 0. The y axis ranges from 100%, meaning not digested at all, to 0%, meaning fully digested.

Data set [7] relates to HEK cells. Briefly: Toxicity assay on the human cell line (MTT). The data set is classed as cell-based. The following applies: 100 to 0.78 μM peptide, 24 h, read at 595 nm, normalized to untreated cells; 3 biological repeats in triplicates. The method, then:
HEK cells were grown at 37 °C with 5% CO2 in Deulbecco’s modifield Eagle’s medium (DMEM, Sigma) with 2 mM L-glutamine, 1% (v/v) penicillin and streptomycin (Penstrep), and 20% (v/v) fetal bovine serum. The day before the experiment, cells were detached by gentle scraping, counted with a hemocytometer to a concentration of 10^6 cells/mL, and seeded into a 96-well microplate (Nunc, Thermo Scientific). The following day, serial dilutions from 100 to 0.78 μM for each peptide were introduced to the cells with DMEM lacking phenol red for 24 h. Later, 50 μL of 3-(4,5-dimethylthiazol-2-yl)-2,5-diphenyltetrazolium bromide (MTT, 0.5 mg/mL) was added to the wells for 2 h of incubation. At the end, 100 μL of DMSO was added for 30 min at 37 °C and 200 rpm, and the plate was read at 595 nm and normalized to the untreated cells.
Peptide Concentration [µM] Peptide Concentration [µM]
Supplementary 3. Cytotoxicity examination. HEK cells were cultured in DMEM with L-glutamine, PenStrep, and fetal bovine serum at 37°C and 5% CO2. The day before the experiment, cells were detached, counted (10^6 cells/ml), and seeded into a 96-well plate. […] Cell viability was assessed using the MTT assay; after adding 50µl of MTT and incubating for 2 hours, 100µl DMSO was added for 30minutes at 37 °C, 200rpm. Next, absorbance was measured at 595nm and normalized to untreated controls. […]

Where [8] appears, read: RPMI1640 with MOPS, resazurin, absorbance 570 nm, MIC = lowest concentration inhibiting growth by 90%, average ± SE, 3 biological repeats in triplicates.
The mark [9] stands for this setting: MH media, 5 × 10^5 CFU/mL, 24 h at 37 °C, read at 595 nm, MIC = growth reduced to 10%, average ± SE, 3 biological repeats in triplicates.

Take `CC[C@H](C)[C@H](NC(=O)[C@H](CCCCN)NC(=O)[C@H](CCCCN)NC(=O)[C@H](Cc1ccccc1)NC(=O)[C@H](CC(C)C)NC(=O)[C@H](CCCCN)NC(=O)[C@H](CCCCN)NC(=O)[C@H](CC(C)C)NC(=O)[C@H](Cc1ccc(O)cc1)NC(=O)[C@H](CCCCN)NC(=O)[C@H](CC(C)C)NC(=O)[C@@H](NC(=O)[C@H](CCCCN)NC(=O)[C@H](CCCCN)NC(=O)[C@H](Cc1ccccc1)NC(=O)[C@H](CC(C)C)NC(=O)[C@H](CCCCN)NC(=O)[C@@H](N)CCCCN)[C@@H](C)CC)C(=O)N[C@@H](CC(C)C)C(=O)N[C@@H](CCCCN)C(=O)N[C@@H](Cc1ccc(O)cc1)C(=O)N[C@@H](CC(C)C)C(N)=O` [BP100 Double] (H-KKLFKKILKYLKKLFKKILKYL-NH2): the “MIC Values, A. fumigatus” value in data set [1] (setting [8]) is 3 ± 0.5 µM (≈ 8.47 µg/mL). In addition, the “MIC Values, MRSA” value in data set [2] (setting [9]) is over 200 µM. Also, the “MIC Values, E. coli” value in data set [3] (setting [9]) was over 200 µM. Also, in data set [4] (setting [8]), the “MIC Values, P. expansum” value was 2 ± 0 µM (≈ 5.65 µg/mL). The “MIC Values, A. Niger” value in data set [5] (setting [8]) is 5 ± 1 µM (≈ 14.1 µg/mL). Also, the digestion by chymotrypsin entry in data set [6] is listed as “less prone for digestions; also recorded: not digested”.

In the case of `CC[C@H](C)[C@H](NC(=O)[C@H](CCCCN)NC(=O)[C@H](CCCCN)NC(=O)[C@H](Cc1ccccc1)NC(=O)[C@H](CC(C)C)NC(=O)[C@H](CCCCN)NC(=O)[C@@H](N)Cc1c[nH]c2ccccc12)C(=O)N[C@@H](CC(C)C)C(=O)N[C@@H](CCCCN)C(=O)N[C@@H](Cc1ccc(O)cc1)C(=O)N[C@@H](CC(C)C)C(N)=O` [BP100 K1W], in data set [7], the “cytotoxicity against HEK mammalian cells (MTT assay)” value is listed as “low to no cytotoxicity”. In addition, the “MIC Values, A. fumigatus” value in data set [1] (setting [8]) amounted to 8 ± 2 µM (≈ 11.8 µg/mL). Further, the “MIC Values, MRSA” value in data set [2] (setting [9]) is 3 ± 0 µM (≈ 4.44 µg/mL). In addition, the “MIC Values, E. coli” value in data set [3] (setting [9]) came out at 2 ± 0 µM (≈ 2.96 µg/mL). The “MIC Values, P. expansum” value in data set [4] (setting [8]) was 6 ± 0 µM (≈ 8.87 µg/mL). In addition, the “MIC Values, A. Niger” value in data set [5] (setting [8]) amounted to 10 ± 2 µM (≈ 14.8 µg/mL). In addition, the digestion by chymotrypsin result in data set [6] is on record as “fully degraded within a short time frame”.

As to `CC[C@H](C)[C@H](NC(=O)[C@H](CCCCN)NC(=O)[C@H](CCCCN)NC(=O)[C@H](Cc1ccccc1)NC(=O)[C@H](CC(C)C)NC(=O)[C@H](CCCCN)NC(=O)[C@H](CCCCN)NC(=O)[C@H](CC(C)C)NC(=O)[C@H](Cc1ccc(O)cc1)NC(=O)[C@H](CCCCN)NC(=O)[C@H](CC(C)C)NC(=O)[C@@H](NC(=O)[C@H](CCCCN)NC(=O)[C@H](CCCCN)NC(=O)[C@H](Cc1ccccc1)NC(=O)[C@H](CC(C)C)NC(=O)[C@H](CCCCN)NC(=O)[C@H](CCCCN)NC(=O)[C@H](CC(C)C)NC(=O)[C@H](Cc1ccc(O)cc1)NC(=O)[C@H](CCCCN)NC(=O)[C@H](CC(C)C)NC(=O)[C@@H](NC(=O)[C@H](CCCCN)NC(=O)[C@H](CCCCN)NC(=O)[C@H](Cc1ccccc1)NC(=O)[C@H](CC(C)C)NC(=O)[C@H](CCCCN)NC(=O)[C@@H](N)CCCCN)[C@@H](C)CC)[C@@H](C)CC)C(=O)N[C@@H](CC(C)C)C(=O)N[C@@H](CCCCN)C(=O)N[C@@H](Cc1ccc(O)cc1)C(=O)N[C@@H](CC(C)C)C(N)=O` [BP100 Triple] (H-KKLFKKILKYLKKLFKKILKYLKKLFKKILKYL-NH2), in data set [1] (setting [8]), the “MIC Values, A. fumigatus” value amounted to 42 ± 8.3 µM (≈ 178 µg/mL). The “MIC Values, MRSA” value in data set [2] (setting [9]) was over 200 µM. In addition, in data set [3] (setting [9]), the “MIC Values, E. coli” value was over 200 µM. Besides, the “MIC Values, P. expansum” value in data set [4] (setting [8]) is 83 ± 17 µM (≈ 351 µg/mL). Further, the “MIC Values, A. Niger” value in data set [5] (setting [8]) is over 200 µM. For the same molecule, the digestion by chymotrypsin entry in data set [6] is on record as “less prone for digestions; also recorded: not digested”.

Turning to `C[C@H](N)C(=O)N[C@@H](CCCCN)C(=O)N[C@@H](CCCNC(=N)N)C(=O)N[C@@H](Cc1c[nH]cn1)C(=O)N[C@@H](Cc1c[nH]cn1)C(=O)NCC(=O)N[C@@H](Cc1ccc(O)cc1)C(=O)N[C@@H](CCCCN)C(=O)N[C@@H](CCCNC(=N)N)C(=O)N[C@@H](CCCCN)C(=O)N[C@@H](Cc1ccccc1)C(=O)N[C@@H](Cc1c[nH]cn1)C(=O)N[C@@H](C)C(=O)N[C@@H](CCCCN)C(=O)N[C@@H](CCCNC(=N)N)C(=O)N[C@@H](Cc1c[nH]cn1)C(=O)N[C@@H](Cc1c[nH]cn1)C(=O)NCC(=O)N[C@@H](Cc1ccc(O)cc1)C(=O)N[C@@H](CCCCN)C(=O)N[C@@H](CCCNC(=N)N)C(=O)N[C@@H](CCCCN)C(=O)N[C@@H](Cc1ccccc1)C(=O)N[C@@H](Cc1c[nH]cn1)C(=O)N[C@@H](C)C(=O)N[C@@H](CCCCN)C(=O)N[C@@H](CCCNC(=N)N)C(=O)N[C@@H](Cc1c[nH]cn1)C(=O)N[C@@H](Cc1c[nH]cn1)C(=O)NCC(=O)N[C@@H](Cc1ccc(O)cc1)C(=O)N[C@@H](CCCCN)C(=O)N[C@@H](CCCNC(=N)N)C(=O)N[C@@H](CCCCN)C(=O)N[C@@H](Cc1ccccc1)C(=O)N[C@@H](Cc1c[nH]cn1)C(N)=O` [P-113 Triple] (H-AKRHHGYKRKFHAKRHHGYKRKFHAKRHHGYKRKFH-NH2), the “cytotoxicity against HEK mammalian cells (MTT assay)” value in data set [7] is “low to no cytotoxicity”. Also, the “MIC Values, A. fumigatus” value in data set [1] amounted to 5 ± 2 µM (≈ 23.3 µg/mL). In data set [2] (24 h), the “MIC Values, MRSA” value came to 25 ± 0 µM (≈ 116 µg/mL). For the same molecule, in data set [3] (24 h), the “MIC Values, E. coli” value came out at 42 ± 14 µM (≈ 196 µg/mL). For the same molecule, the “MIC Values, P. expansum” value in data set [4] was 5 ± 2 µM (≈ 23.3 µg/mL). The “MIC Values, A. Niger” value in data set [5] worked out at 16 ± 4 µM (≈ 74.5 µg/mL). Further, in data set [6] (peptide 4 mM in 100 μM NH4HCO3, 1 μL chymotrypsin (1 mg/mL), 37 °C, 150 rpm, analytical RP-HPLC C18, AUC normalized to t = 0), the digestion by chymotrypsin result is recorded as “fully degraded within a short time frame”.
